Values quoted from earlier work as cited in patent publication US9427470B2, “Hyaluronic acid stabilizer” (priority 2012, dated 2016).

Target: CD44 (Homo sapiens, UniProt P16070)
Settings: Aruffo, et al., 1990

CD44, sequence (P16070 21-742, species assumed): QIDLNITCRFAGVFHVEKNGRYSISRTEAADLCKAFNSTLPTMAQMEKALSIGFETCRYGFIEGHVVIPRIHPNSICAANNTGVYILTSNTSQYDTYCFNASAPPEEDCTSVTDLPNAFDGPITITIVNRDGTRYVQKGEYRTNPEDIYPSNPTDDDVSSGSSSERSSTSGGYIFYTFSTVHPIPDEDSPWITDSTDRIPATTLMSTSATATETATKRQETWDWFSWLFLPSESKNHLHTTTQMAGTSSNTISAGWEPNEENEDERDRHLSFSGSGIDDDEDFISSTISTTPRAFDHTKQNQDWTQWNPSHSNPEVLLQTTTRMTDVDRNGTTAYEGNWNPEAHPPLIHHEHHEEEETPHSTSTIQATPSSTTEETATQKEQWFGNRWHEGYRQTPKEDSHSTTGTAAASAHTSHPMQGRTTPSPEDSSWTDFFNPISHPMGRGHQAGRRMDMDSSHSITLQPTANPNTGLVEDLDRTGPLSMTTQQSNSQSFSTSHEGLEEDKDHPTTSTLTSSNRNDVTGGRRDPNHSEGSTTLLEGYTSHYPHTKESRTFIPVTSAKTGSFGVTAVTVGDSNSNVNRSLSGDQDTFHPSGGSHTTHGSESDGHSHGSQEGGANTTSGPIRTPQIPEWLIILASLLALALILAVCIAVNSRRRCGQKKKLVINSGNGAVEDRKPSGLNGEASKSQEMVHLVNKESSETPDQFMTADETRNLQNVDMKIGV

Substance: Hyaluronic acid [HA]
- strength of bond to CD44 relative to chondroitin sulfate: about 100 times
